Laboratory results from patent publication US20250041245A1, “ENDOXIFEN FOR TREATMENT OF CANCERS” (Atossa Therapeutics, Inc., priority 2021, published 2025).
Where “and” joins values, the source holds several entries; their conditions need not be identical. Equal values may be shown once. Entries after “also recorded” stand apart in the source; their conditions may differ.

Tests used:
Type in all cases: cell-based, human
[1] = tested on: patient-derived tumor organoids (PDTOs), myxofibrosarcoma; assay: Endoxifen screen in PDTOs: myxofibrosarcoma; set-up: key to Personalization Category: Personalization categories range from High, Good, Moderate, Low, to None; Personalization categories range from High, Good, Moderate, Low, to None; Personalization categories range from High, Good, Moderate, Low, to None; Personalization categories range from High, Good, Moderate, Low, to None; Personalization categories range from High, Good, Moderate, Low, to None; key to Sensitivity Category: Sensitivity categories range from High, Good, Moderate, Low, to None; Sensitivity categories range from High, Good, Moderate, Low, to None; Sensitivity categories range from High, Good, Moderate, Low, to None; Sensitivity categories range from High, Good, Moderate, Low, to None; Sensitivity categories range from High, Good, Moderate, Low, to None; AUC: unit not given beside the values
Description: (§1) This example describes screening endoxifen in patient-derived tumor organoids. Endoxifen was tested as a single agent on tumor organoids derived from patients diagnosed with various cancer types using a personalized cancer treatment screening assay (PARIS© Test, SEngine Precision Medicine). The screen utilized patient-derived tumor organoids (PDTOs) along with high-throughput drug screening and machine learning-guided data analysis to quantify the efficacy of endoxifen against samples derived from individual patients diagnosed with various cancer types. PDTOs are self-organizing, three-dimensional organoid structures that recapitulate structural, functional, and genomic aspects of in vivo organs. The PDTOs were grown in culture from patient tumor biopsy samples.
(§2) Fresh patient biopsy samples received following surgery were cleaned and purified. Immune cells (e.g., lymphocytes, blood cells), cancer-associated fibroblasts, and other non-tumor cells were removed to establish pure PDTOs for endoxifen testing. The tumor organoids were grown and expanded by supplying organ- and patient-specific growth factors and nutrients. The PDTOs were treated with increasing concentrations of endoxifen ranging from about 30 nM to about 10 μM, and the drug response was measured using a luminescence readout. A lower luminescence was indicative of a stronger drug response.
(§3) The results were analyzed using a “SEngine Precision Medicine” (SPM) scoring system to assess the sensitivity and personalization of each tumor organoid to endoxifen. The SPM score correlates with clinical outcomes, such that a higher SPM score for a specific PDTO-drug combination predicts a more favorable clinical outcome following treatment of the corresponding patient with the tested drug.
(§4) This example describes testing endoxifen efficacy against 17 distinct cancer types in patient-derived tumor organoids (PDTOs). Screening of PDTOs was performed as described in EXAMPLE 1. For each PDTO sample, the drug response was measured using a luminescent readout over a range of endoxifen concentrations. The drug response was evaluated based on the area under the fitted dose response curve (AUC) and the SPM scoring system. AUC values were normalized for each PDTO. Briefly, data points at each drug concentration were first normalized to a negative control, then a dose response drug curve was approximated using a four-parameter logistic model fitted to the normalized data points. The area under the curve was calculated from the normalized curve. Normalization allowed for comparison of AUC values between patient samples. The SPM scores were based on machine learning models that incorporate values for how well the drug kill patient cells (sensitivity metric), the relative drug responses of a patient to all other patients in a sample database (personalization metric), and knowledge of clinical outcomes for patients that had been evaluated with the personalized cancer screening assay (PARIS® Test, SEngine Precision Medicine).
(§5) The SPM scoring system evaluated whether a PDTO was unresponsive or responsive to endoxifen and the degree of drug response for PDTOs that were responsive to endoxifen. […] The sensitivity category was determined from the sensitivity metric and is a measure of overall cell death of a patient's cells in response to endoxifen at six concentrations. […]

[2] = tested on: patient-derived tumor organoids (PDTOs), melanoma; assay: Endoxifen screen in PDTOs: melanoma; set-up: key to Personalization Category: Personalization categories range from High, Good, Moderate, Low, to None; Personalization categories range from High, Good, Moderate, Low, to None; Personalization categories range from High, Good, Moderate, Low, to None; Personalization categories range from High, Good, Moderate, Low, to None; Personalization categories range from High, Good, Moderate, Low, to None; key to Sensitivity Category: Sensitivity categories range from High, Good, Moderate, Low, to None; Sensitivity categories range from High, Good, Moderate, Low, to None; Sensitivity categories range from High, Good, Moderate, Low, to None; Sensitivity categories range from High, Good, Moderate, Low, to None; Sensitivity categories range from High, Good, Moderate, Low, to None; AUC: unit not given beside the values
Description: as §1, §2, §3, §4
The SPM scoring system evaluated whether a PDTO was unresponsive or responsive to endoxifen and the degree of drug response for PDTOs that were responsive to endoxifen. The SPM scoring system generated metrics an SPM score, predictive of clinical outcome, overall drug response (response category), drug sensitivity (sensitivity category), and drug personalization (personalization category). SPM scores ranged from 1-15, corresponding to the following drug response categories: no response (SPM 1-8), low response (SPM 9), moderate response (SPM 10-11), good response (SPM 12-13), and exceptional response (SPM 14-15). […] Moderate to good drug responses (SPM 10-13) may indicate that a drug has clinical relevance, possibly in combination with other drugs. The sensitivity category was determined from the sensitivity metric and is a measure of overall cell death of a patient's cells in response to endoxifen at six concentrations. […]

[3] = tested on: patient-derived tumor organoids (PDTOs), leiomyosarcoma; assay: Endoxifen screen in PDTOs: leiomyosarcoma; set-up: key to Personalization Category: Personalization categories range from High, Good, Moderate, Low, to None; Personalization categories range from High, Good, Moderate, Low, to None; Personalization categories range from High, Good, Moderate, Low, to None; Personalization categories range from High, Good, Moderate, Low, to None; Personalization categories range from High, Good, Moderate, Low, to None; key to Sensitivity Category: Sensitivity categories range from High, Good, Moderate, Low, to None; Sensitivity categories range from High, Good, Moderate, Low, to None; Sensitivity categories range from High, Good, Moderate, Low, to None; Sensitivity categories range from High, Good, Moderate, Low, to None; Sensitivity categories range from High, Good, Moderate, Low, to None; AUC: unit not given beside the values; conditions: each line one patient sample
Description: as §1, §2, §3, §4, §5

[4] = tested on: patient-derived tumor organoids (PDTOs), ovarian cancer; assay: Endoxifen screen in PDTOs: ovarian cancer; set-up: AUC: unit not given beside the values; conditions: each line one patient sample
Description: as §1
as §2, with “The tumor organoids were grown and expanded by supplying organ- and patient-specific growth factors and nutrients.” left out
The results were analyzed using a “SEngine Precision Medicine” (SPM) scoring system to assess the sensitivity and personalization of each tumor organoid to endoxifen. […]
This example describes testing endoxifen efficacy against 17 distinct cancer types in patient-derived tumor organoids (PDTOs). […] For each PDTO sample, the drug response was measured using a luminescent readout over a range of endoxifen concentrations. The drug response was evaluated based on the area under the fitted dose response curve (AUC) and the SPM scoring system. […] The area under the curve was calculated from the normalized curve. […]
The SPM scoring system evaluated whether a PDTO was unresponsive or responsive to endoxifen and the degree of drug response for PDTOs that were responsive to endoxifen. […]

[5] = melanoma PDTOs, each line one patient sample
[6] = normalized area under fitted dose response curve

IC50 ([1]; Homo sapiens, patient 1, four-parameter logistic fit): 7.25 µM
IC50 ([2]; Homo sapiens, skin cancer organoid assays, multiple skin cancers (summary statement)): < 10 µM
IC50 ([2]; melanoma PDTOs, each line one patient sample, four-parameter logistic fit): 2.74 µM and 3.3 µM and 1.44 µM and 7.06 µM
IC50 ([4]; four-parameter logistic fit): 9.26 µM and 8.13 µM and 6.7 µM and 4.87 µM and 7.26 µM and 9.3 µM and 3.08 µM and 6.91 µM and 9.33 µM and 3.45 µM and 9.41 µM and 6.22 µM and 9.47 µM and 6.17 µM and 7.21 µM and 6.13 µM and 4.14 µM and 6.06 µM and 3.59 µM and 5.48 µM and 3.69 µM and 4.28 µM and 9.16 µM
Compound: CC/C(=C(\c1ccc(O)cc1)c1ccc(OCCNC)cc1)c1ccccc1 [Endoxifen, 4-hydroxy-N-desmethyltamoxifen]
Personalization Category ([1]; patient 1): None
Sensitivity Category ([1]; patient 1): None
AUC ([1]; patient 1, normalized area under fitted dose response curve): 0.9384
SPM Score ([1]; patient 1, score range 1-15): 1
Personalization Category [2, 5]: Low and Good and High
Response Category [2, 5]: Low (low response (SPM 9)); also recorded: Moderate (moderate response (SPM 10-11)); also recorded: Good (good response (SPM 12-13))
Sensitivity Category [2, 5]: Low and Moderate
AUC ([2]; melanoma PDTOs, each line one patient sample, normalized area under fitted dose response curve): 0.8952 and 0.7865 and 0.6541 and 0.8094
SPM Score ([2]; melanoma PDTOs, each line one patient sample, score range 1-15): 9 and 11 (2×) and 13
Personalization Category [3]: None
Response Category [3]: None (no response (SPM 1-8))
Sensitivity Category [3]: None
AUC [3, 6]: 0.9719 and 1.0448 and 1.0001
SPM Score ([3]; score range 1-15): 1
AUC [4, 6]: 0.9109 and 1.0762 and 0.8038 and 0.9291 and 0.9081 and 0.9209 and 1.0105 and 0.8454 and 0.8909 and 0.9267 and 0.9074 and 0.8343 and 0.9838 and 0.8320 and 1.0057 and 0.9637 and 1.1417 and 1.0287 and 0.8785 and 0.8853 and 0.9968 and 0.9220 and 0.8174 and 0.9760 and 0.8739 and 0.8607 and 1.0172 and 0.9895 and 0.9934
SPM Score ([4]; score range 1-15): 1 (15×) and 11 (2×) and 5 (3×) and 9 (6×) and 10 (2×) and 4
